Measurements from article PMC4130903 (Bioorganic & medicinal chemistry letters, 2014).
Where two headings read alike, the source gives them in different places.

Tests used:
[1] = biological target: T1, NTSR1 (Homo sapiens, UniProt P30989); assay type: cell-based; conditions: for Emax: % of the response obtained with the NT(8–13) peptide, average ± SEM, n = 4; for NTSR1 activity (in words): Ca2+ mobilization assay
[2] = biological target: T1, NTSR1; conditions: Wyeth compound 1, literature value; cited from earlier work
[3] = biological target: T1, NTSR1; conditions: NTSR1 antagonists; cited from earlier work
[4] = biological target: T1, NTSR1; experiment: Ca2+ assay in the presence and absence of antagonist 5; assay type: cell-based; conditions: in the presence of antagonist 5 (SR 48692); Figure S1

T1 sequence (P30989 whole entry, species assumed): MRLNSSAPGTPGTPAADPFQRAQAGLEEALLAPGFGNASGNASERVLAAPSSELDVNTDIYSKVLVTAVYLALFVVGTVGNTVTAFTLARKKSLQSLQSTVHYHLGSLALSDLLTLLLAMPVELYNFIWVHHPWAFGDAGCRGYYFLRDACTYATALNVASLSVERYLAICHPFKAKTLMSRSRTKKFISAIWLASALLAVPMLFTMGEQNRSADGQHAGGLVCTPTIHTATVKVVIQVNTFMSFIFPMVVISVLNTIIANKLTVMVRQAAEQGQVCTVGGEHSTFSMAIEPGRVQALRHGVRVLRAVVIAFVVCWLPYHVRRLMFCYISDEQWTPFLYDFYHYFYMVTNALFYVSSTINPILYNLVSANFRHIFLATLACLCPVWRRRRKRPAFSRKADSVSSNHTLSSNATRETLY

CC(C)C[C@@H](NC(=O)Cn1ccc2cc(NS(=O)(=O)c3cccc4cccnc34)ccc21)C(=O)O [Compound 1, reference compound]
EC50 [1]: > 100 µM | Emax [2]: 17%

COc1cccc(OC)c1-c1cc(C(=O)NC2(C(=O)O)C3CC4CC(C3)CC2C4)nn1-c1ccnc2cc(Cl)ccc12 (stereo not drawn) [Compound 5]
Binding affinity [3]: low nanomolar range

COc1cccc(OC)c1-c1cc(C(=O)NC2(C(=O)O)C3CC4CC(C3)CC2C4)nn1-c1ccc(C(=O)N(C)CCCN(C)C)cc1C(C)C (stereo not drawn) [Compound 6]
Binding affinity [3]: low nanomolar range

CC(C)C[C@H](NC(=O)Cn1ccc2cc(NS(=O)(=O)c3cccc4cccnc34)ccc21)C(=O)O [Compound 7]
NTSR1 stimulatory activity in the presence of antagonist 5 [4]: abolished

CC(C)C[C@H](NC(=O)Cn1ccc2cc(-c3cnc4ccccc4c3)ccc21)C(=O)O [Compound 8]
Emax [1]: 100% | Potency improvement compared to parent compound 1 ([1]; EC50 versus compound 1 (EC50 = 178 μM)): ~ 90 fold | NTSR1 stimulatory activity in the presence of antagonist 5 [4]: abolished

CC(C)C[C@H](NC(=O)Cn1ccc2ccccc21)C(=O)O [Compound 12]
NTSR1 stimulatory activity in the presence of antagonist 5 [4]: abolished

CC(C)C[C@H](NC(=O)Cn1ccc2cc(-c3cccc4ccccc34)ccc21)C(=O)O [Compound 17]
EC50 [1]: 3 µM | Emax [1]: 100% | NTSR1 stimulatory activity in the presence of antagonist 5 [4]: abolished

CC(C)C[C@H](NC(=O)Cn1ccc2cc(-c3cncc4ccccc34)ccc21)C(=O)O [Compound 21]
NTSR1 stimulatory activity in the presence of antagonist 5 [4]: abolished

COC(=O)[C@H](CC(C)C)NC(=O)Cn1ccc2cc(-c3cnc4ccccc4c3)ccc21 [Compound 25]
NTSR1 activity (in words) [1]: loss of activity

CC(C)C[C@@H](CO)NC(=O)Cn1ccc2cc(-c3cnc4ccccc4c3)ccc21 [Compound 26]
NTSR1 activity (in words) [1]: loss of activity

CC(C)C[C@H](NC(=O)Cn1ccc2cc(-c3cnc4ccccc4c3)ccc21)c1nn[nH]n1 [Compound 27]
NTSR1 stimulatory activity in the presence of antagonist 5 [4]: abolished

O=C(Cn1ccc2cc(-c3cnc4ccccc4c3)ccc21)N[C@@H](Cc1ccccc1)C(=O)O [Compound 31]
EC50 [1]: 4 µM

CC(C)C[C@@H](NC(=O)Cn1ccc2cc(-c3cnc4ccccc4c3)ccc21)C(=O)O [Compound 32]
NTSR1 activity (in words) [1]: no activity

COC(=O)[C@H](CC(C)C)NC(=O)Cn1ccc2cc(-c3cccc4ccccc34)ccc21 [Compound 34]
NTSR1 activity (in words) [1]: abolished activity

CC(C)C[C@H](NC(=O)Cn1ccc2ccc(-c3cnc4ccccc4c3)cc21)C(=O)O [Compound 39]
NTSR1 stimulatory activity in the presence of antagonist 5 [4]: abolished

CC(C)C[C@H](NC(=O)Cn1ccc2ccc(-c3cccc4ccccc34)cc21)C(=O)O [Compound 40]
NTSR1 stimulatory activity in the presence of antagonist 5 [4]: abolished
